Measured values from US8143259B2, “Cold menthol receptor antagonists” (Janssen Pharmaceutica, NV, priority 2008, dated 2012).
“And” between values parts separate entries of the source, which are not always exact repeats. Equal entries are not always repeated.

Biological target: T1, canine TRPM8 (Canis lupus familiaris, UniProt Q1A7N1)
T1 construct: expressed in transfected cells
Test: In Vitro Canine TRPM8 Functional Assay (Ca2+ fluorescence, icilin activation)
Assay type: cell-based
Details: for inhibition at 0.2 µM: HEK293, 0.2 μM compound; for inhibition at 0.2 µM / % Inh @ 0.2 μM: canine TRPM8 HEK293, icilin; for IC50: HEK293 cells stably expressing canine TRPM8, icilin activation, Ca2+ fluorescence; for % Inh @ 0.2 μM: 0.2 μM compound
In short: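 HEK293 cells stably expressing canine TRPM8, loaded with Calcium 3 dye; compounds added 5 min before icilin at a concentration giving ~80% maximal response. Peak icilin-evoked Ca2+ fluorescence, basal-subtracted and normalised to maximal response, fitted by sigmoidal nonlinear regression; quadruplicate wells.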

T1 sequence (Q1A7N1 1-1104): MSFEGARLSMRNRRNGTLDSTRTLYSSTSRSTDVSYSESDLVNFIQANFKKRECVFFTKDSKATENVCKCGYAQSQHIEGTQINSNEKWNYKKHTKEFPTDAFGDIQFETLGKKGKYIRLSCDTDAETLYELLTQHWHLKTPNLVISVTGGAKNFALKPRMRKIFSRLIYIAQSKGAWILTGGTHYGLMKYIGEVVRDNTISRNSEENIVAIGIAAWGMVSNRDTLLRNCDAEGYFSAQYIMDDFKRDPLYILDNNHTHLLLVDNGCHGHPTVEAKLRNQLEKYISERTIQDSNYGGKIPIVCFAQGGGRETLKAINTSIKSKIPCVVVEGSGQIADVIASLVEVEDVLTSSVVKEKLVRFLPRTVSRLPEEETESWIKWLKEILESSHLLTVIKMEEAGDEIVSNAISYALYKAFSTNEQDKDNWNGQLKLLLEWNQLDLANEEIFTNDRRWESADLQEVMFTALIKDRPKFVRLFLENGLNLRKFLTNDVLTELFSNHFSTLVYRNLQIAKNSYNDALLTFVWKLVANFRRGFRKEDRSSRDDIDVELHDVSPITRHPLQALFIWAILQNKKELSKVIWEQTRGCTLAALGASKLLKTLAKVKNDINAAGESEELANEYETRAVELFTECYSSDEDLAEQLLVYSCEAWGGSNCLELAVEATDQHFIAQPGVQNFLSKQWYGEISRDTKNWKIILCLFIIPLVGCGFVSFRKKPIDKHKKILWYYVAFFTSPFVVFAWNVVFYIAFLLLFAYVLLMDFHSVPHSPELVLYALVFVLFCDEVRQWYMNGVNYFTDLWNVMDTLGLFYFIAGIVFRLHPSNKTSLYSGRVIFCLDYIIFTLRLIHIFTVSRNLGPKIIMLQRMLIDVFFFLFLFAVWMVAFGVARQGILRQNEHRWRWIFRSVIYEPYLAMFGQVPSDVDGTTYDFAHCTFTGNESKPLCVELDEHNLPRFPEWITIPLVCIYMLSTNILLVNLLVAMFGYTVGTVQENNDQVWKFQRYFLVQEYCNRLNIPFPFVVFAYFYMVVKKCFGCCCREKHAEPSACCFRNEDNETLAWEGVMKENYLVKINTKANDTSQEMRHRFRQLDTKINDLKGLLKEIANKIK

Structure (SMILES) | inhibition at 0.2 µM [%] | IC50 | % Inh @ 0.2 μM (0.2 µM) [%] | % Inh @ 0.2 μM [%]
O=C(C(Nc1ccccc1F)c1ccc(C(F)(F)F)cc1)N1CCCC1c1ccccn1 (stereo not drawn) [Cpd 202] | 100 | 25 nM | – | –
O=C(C(Nc1ccccc1F)c1ccc(C(F)(F)F)cc1)N1CCCC1c1cccnc1 (stereo not drawn) [Cpd 203] | 102 | 7 nM | – | –
COC(=O)C1CCC(c2ccccc2)N1C(=O)C(Nc1ccccc1)c1ccc(Cl)cc1 (stereo not drawn) [Cpd 207] | – | – | 47 | –
COC(=O)C1CCC(c2ccccc2)N1C(=O)C(Nc1c(F)cccc1F)c1ccc(Br)cc1 (stereo not drawn) [Cpd 210] | 99 | 7 nM | – | –
COC(=O)C1CCC(c2ccccc2)N1C(=O)C(Nc1c(F)cccc1F)c1ccc(Br)cc1 (stereo not drawn) [Cpd 211] | – | – | 69 | –
COC(=O)C1CCC(c2ccccc2)N1C(=O)C(Nc1ccccc1)c1ccc(Cl)cc1 (stereo not drawn) [Cpd 213] | – | – | 63 | –
O=C(C(Nc1ccccc1)c1cccnc1)N1CCCC1c1ccccc1F (stereo not drawn) [Cpd 214, 1-[2-(2-Fluoro-phenyl)-pyrrolidin-1-yl]-2-phenylamino-2-pyridin-3-yl-ethanone] | 58 | – | – | –
O=C(C(Nc1ccccc1)c1ccccn1)N1CCCC1c1ccccc1F (stereo not drawn) [Cpd 217] | – | – | 26 | –
O=C(C(Nc1c(F)cccc1F)c1ccc(CO)cc1)N1CCC[C@H]1c1ccccc1F (stereo partly drawn) [Cpd 219, 2-(2,6-Difluoro-phenylamino)-1-[(2S)-2-(2-fluoro-phenyl)-pyrrolidin-1-yl]-2-(4-hydroxymethyl-phenyl)-ethanone] | 89 | 68 nM | – | –
COC(=O)c1ccc(C2CCCN2C(=O)C(Nc2ccccc2F)c2ccc(C(F)(F)F)cc2)cc1 (stereo not drawn) [Cpd 220] | 96 | 48 nM | – | –
O=C(O)c1ccc(C2CCCN2C(=O)C(Nc2ccccc2F)c2ccc(C(F)(F)F)cc2)cc1 (stereo not drawn) [Cpd 222] | 93 | 66 nM | – | –
O=C(C(Nc1ccccc1F)c1cc2ccccc2s1)N1CCCC1c1ccccc1F (stereo not drawn) [Cpd 225, 2-Benzo[b]thiophen-2-yl-2-(2-fluoro-phenylamino)-1-[2-(2-fluoro-phenyl)-pyrrolidin-1-yl]-ethanone] | 98 | 7 nM | – | –
O=C(C(Nc1ccccc1)c1cnc2ccccc2c1)N1CCCC1c1ccccc1F (stereo not drawn) [Cpd 226] | – | 42.5 nM | – | –
O=C(C(c1ccc(C(F)(F)F)cc1)N1CCc2ccccc21)N1CCCC1c1ccccc1 (stereo not drawn) [Cpd 227] | – | 30.6 nM | – | –
O=C(C(c1ccc(C(F)(F)F)cc1)N1CCc2ccccc21)N1CCCC1c1ccccc1F (stereo not drawn) [Cpd 228] | – | 25.4 nM | – | –
CN(c1ccccc1F)C(C(=O)N1Cc2ccccc2C1)c1ccc(C(F)(F)F)cc1 (stereo not drawn) [Cpd 229] | – | 44.4 nM | – | –
O=C(C(c1ccc(C(F)(F)F)cc1)N1CCc2ccccc21)N1Cc2ccccc2C1 (stereo not drawn) [Cpd 230] | – | 105 nM | – | –

Structure (SMILES) | inhibition at 0.2 µM [%] | IC50 | % Inh @ 0.2 μM (0.2 µM) [%] | % Inh @ 0.2 μM [%]
CN(c1ccccc1F)C(C(=O)N1CCCC1c1ccccc1F)c1ccc(C(F)(F)F)cc1 (stereo not drawn) [Cpd 233] | – | – | – | 10
O=C(C(Cc1c(F)cccc1F)c1ccc(C(F)(F)F)cc1)N1CCCC1c1ccccc1F (stereo not drawn) [Cpd 244, 3-(2,6-Difluoro-phenyl)-1-[2-(2-fluoro-phenyl)-pyrrolidin-1-yl]-2-(4-trifluoromethyl-phenyl)-propan-1-one] | 98 | 16.7 nM | – | –
O=C(C(Nc1ccccc1F)c1ccc2ncccc2c1)N1CCCC1c1ccccc1F (stereo not drawn) [Cpd 248] | 94 | 12.3 nM | – | –
O=C(C(Cc1cccc(F)c1F)c1ccc(C(F)(F)F)cc1)N1CCCC1c1ccccc1F (stereo not drawn) [Cpd 253] | 89 | 65.8 nM | – | –
O=C(C(Oc1ccccc1F)c1ccc(C(F)(F)F)cc1)N1CCCC1c1ccccc1F (stereo not drawn) [Cpd 263, 2-(2-Fluoro-phenoxy)-1-[2-(2-fluoro-phenyl)-pyrrolidin-1-yl]-2-(4-trifluoromethyl-phenyl)-ethanone] | 84 | 110 nM | – | –
O=C(C(Nc1ccccc1)c1cnc2ccccc2c1)N1CCCC1c1ccccc1F (stereo not drawn) [Cpd 264] | 93 | 43 nM | – | –
Nc1ccc(C2CCCN2C(=O)C(Nc2ccccc2F)c2ccc(C(F)(F)F)cc2)cc1 (stereo not drawn) [Cpd 266] | 100 | 2 nM | – | –
O=C(C(Cc1c(F)cccc1F)c1ccc(C(F)(F)F)cc1)N1CCCC1c1ccccc1Cl (stereo not drawn) [Cpd 267] | 98 | 30 nM | – | –
CN(C)c1ccc(C2CCCN2C(=O)C(Nc2ccccc2F)c2ccc(Br)cc2)cc1 (stereo not drawn) [Cpd 271] | 90 | 89 nM | – | –
CN(C)c1ccc(C2CCCN2C(=O)C(Nc2ccccc2F)c2ccc(Cl)cc2)cc1 (stereo not drawn) [Cpd 272] | 96 | 110 nM | – | –
CN(C)c1ccc(C2CCCN2C(=O)C(Nc2c(F)cccc2F)c2ccc(Cl)cc2)cc1 (stereo not drawn) [Cpd 273] | 98 | 104 nM | – | –
O=C(C(Nc1ccccc1F)c1cnc2ccccc2c1)N1CCCC1c1ccccc1F (stereo not drawn) [Cpd 281] | 89 | 94 nM | – | –
O=C(C(Nc1ccccc1F)c1ccc2cccnc2c1)N1CCCC1c1ccccc1F (stereo not drawn) [Cpd 284] | 92 | 20 nM and 26 nM | 95 | –
O=C(C(Nc1ccccc1F)c1ccc(-c2cccnc2)cc1)N1CCCC1c1ccccc1F (stereo not drawn) [Cpd 285, 2-(2-Fluoro-phenylamino)-1-[2-(2-fluoro-phenyl)-pyrrolidin-1-yl]-2-(4-pyridin-3-yl-phenyl)-ethanone] | 91 | 12 nM and 15 nM | 96 | –
CCOC(=O)c1ccc(C(Nc2ccccc2F)C(=O)N2CCCC2c2ccccc2F)cc1 (stereo not drawn) [Cpd 287] | 92 | 27 nM | – | –
O=C(C(Nc1ccccc1F)c1ccc(-c2cncnc2)cc1)N1CCCC1c1ccccc1F (stereo not drawn) [Cpd 288] | 91 | 9 nM and 10 nM | 95 | –

Continued, values first:

inhibition at 0.2 µM [%] | IC50 | % Inh @ 0.2 μM (0.2 µM) [%] | % Inh @ 0.2 μM [%] | Structure (SMILES)
98 | 2 nM | – | – | Nc1ccc(C2CCCN2C(=O)C(Nc2ccccc2F)c2ccc(Cl)cc2)cc1 (stereo not drawn) [Cpd 290]
72 | 422 nM | – | – | O=C(C(c1ccc(C(F)(F)F)cc1)N1CCCc2ccccc21)N1CCCC1c1ccccc1 (stereo not drawn) [Cpd 291]
86 | 11 nM | – | – | O=C(C(Nc1ccccc1F)c1ccc(N2CCOCC2)cc1)N1CCCC1c1ccccc1F (stereo not drawn) [Cpd 293]
92 | 22 nM and 27 nM | 102 | – | O=C(C(Nc1ccccc1F)c1ccc(-c2ccncc2)cc1)N1CCCC1c1ccccc1F (stereo not drawn) [Cpd 294]
90 | 47 nM | – | – | O=C(O)c1ccc(-c2ccc(C(Nc3ccccc3F)C(=O)N3CCCC3c3ccccc3F)cc2)cc1 (stereo not drawn) [Cpd 295, 4′-{1-(2-Fluoro-phenylamino)-2-[2-(2-fluoro-phenyl)-pyrrolidin-1-yl]-2-oxo-ethyl}-biphenyl-4-carboxylic acid]
99 | 65 nM | – | – | CC(C)(C)OC(=O)N1CC=C(c2ccc(C(Nc3ccccc3F)C(=O)N3CCCC3c3ccccc3F)cc2)CC1 (stereo not drawn) [Cpd 299, 4-(4-{1-(2-Fluoro-phenylamino)-2-[2-(2-fluoro-phenyl)-pyrrolidin-1-yl]-2-oxo-ethyl}-phenyl)-3,6-dihydro-2H-pyridine-1-carboxylic acid tert-butyl ester]
99 | 35 nM | – | – | O=C(C(Nc1ccccc1F)c1ccc(-n2ccnc2)cc1)N1CCCC1c1ccccc1F (stereo not drawn) [Cpd 301]
57 | – | – | – | O=C(C(Nc1ccccc1F)c1ccc(C2=CCNCC2)cc1)N1CCCC1c1ccccc1F (stereo not drawn) [Cpd 302, 2-(2-Fluoro-phenylamino)-1-[2-(2-fluoro-phenyl)-pyrrolidin-1-yl]-2-[4-(1,2,3,6-tetrahydro-pyridin-4-yl)-phenyl]-ethanone]
101 | 2 nM | – | – | Nc1cccc(C2CCCN2C(=O)C(Nc2ccccc2F)c2ccc(C(F)(F)F)cc2)c1 (stereo not drawn) [Cpd 305]
99 | 51 nM | – | – | COC(=O)c1cccc(NC(C(=O)N2CCCC2c2ccccc2F)c2ccc3c(c2)CCO3)c1 (stereo not drawn) [Cpd 311]
102 | 26 nM | – | – | CC(=O)Nc1cccc(C2CCCN2C(=O)C(Nc2ccccc2F)c2ccc(C(F)(F)F)cc2)c1 (stereo not drawn) [Cpd 316]
102 | 3 nM | – | – | CC(=O)Nc1ccc(C2CCCN2C(=O)C(Nc2ccccc2F)c2ccc(C(F)(F)F)cc2)cc1 (stereo not drawn) [Cpd 317]
47 | – | – | – | CC(=O)N(c1ccccc1F)[C@H](C(=O)N1CCC[C@H]1c1ccccc1F)c1ccc(C(F)(F)F)cc1 [Cpd 318, N-(2-Fluoro-phenyl)-N-[2-[(2S)-2-(2-fluoro-phenyl)-pyrrolidin-1-yl]-2-oxo-(1S)-1-(4-trifluoromethyl-phenyl)-ethyl]-acetamide]
94 | 25 nM | – | – | O=C(C(Nc1ccccc1F)c1cc2ccccc2s1)N1CCCC1c1cccnc1 (stereo not drawn) [Cpd 319]
94 | 8 nM | – | – | O=C(C(Nc1ccccc1F)c1cc2ccccc2s1)N1CCCC1c1ccccn1 (stereo not drawn) [Cpd 321]
101 | 28 nM | – | – | COC(=O)c1cccc(C2CCCN2C(=O)C(Nc2ccccc2F)c2cc3ccccc3s2)c1 (stereo not drawn) [Cpd 324, 3-{1-[2-Benzo[b]thiophen-2-yl-2-(2-fluoro-phenylamino)-acetyl]-pyrrolidin-2-yl}-benzoic acid methyl ester]
101 | 62 nM | – | – | COC(=O)c1ccc(C2CCCN2C(=O)C(Nc2ccccc2F)c2cc3ccccc3s2)cc1 (stereo not drawn) [Cpd 325]
97 | 78 nM | – | – | O=C(O)c1cccc(C2CCCN2C(=O)C(Nc2ccccc2F)c2cc3ccccc3s2)c1 (stereo not drawn) [Cpd 326, 3-{1-[2-Benzo[b]thiophen-2-yl-2-(2-fluoro-phenylamino)-acetyl]-pyrrolidin-2-yl}-benzoic acid]
101 | 8 nM | – | – | O=C(C(Nc1ccccc1F)c1cc2cccnc2s1)N1CCCC1c1ccccc1F (stereo not drawn) [Cpd 328]
100 | 28 nM | – | – | O=C(C(Nc1ccccc1F)c1ccc(-n2ccnc2)cc1)N1CCCC1c1ccccc1Cl (stereo not drawn) [Cpd 342]
101 | 17 nM | – | – | O=C(C(Nc1ccccc1F)c1ccc(-c2cccnc2)cc1)N1CCCC1c1ccccc1Cl (stereo not drawn) [Cpd 343]
